Measured values: US8133901B2, “3-heteroaryl (amino or amido)-1-(biphenyl or phenylthiazolyl) carbonylpiperidine derivatives as orexin receptor inhibitors” (Actelion Pharmaceuticals Ltd., priority 2006, dated 2012)

Tests used:
human orexin-2 receptor = target: T1, human orexin-2 receptor (Homo sapiens, UniProt O43614); assay: Intracellular calcium measurements (FLIPR), orexin receptor antagonistic activity, OX2; format: cell-based; details: CHO cells expressing the human orexin-2 receptor; 10 nM orexin-A as agonist; fluo-3 calcium signal
T1 construct: expressed in transfected cells; host or cells: CHO cells (G418 selection)
T1 sequence (O43614 1-444): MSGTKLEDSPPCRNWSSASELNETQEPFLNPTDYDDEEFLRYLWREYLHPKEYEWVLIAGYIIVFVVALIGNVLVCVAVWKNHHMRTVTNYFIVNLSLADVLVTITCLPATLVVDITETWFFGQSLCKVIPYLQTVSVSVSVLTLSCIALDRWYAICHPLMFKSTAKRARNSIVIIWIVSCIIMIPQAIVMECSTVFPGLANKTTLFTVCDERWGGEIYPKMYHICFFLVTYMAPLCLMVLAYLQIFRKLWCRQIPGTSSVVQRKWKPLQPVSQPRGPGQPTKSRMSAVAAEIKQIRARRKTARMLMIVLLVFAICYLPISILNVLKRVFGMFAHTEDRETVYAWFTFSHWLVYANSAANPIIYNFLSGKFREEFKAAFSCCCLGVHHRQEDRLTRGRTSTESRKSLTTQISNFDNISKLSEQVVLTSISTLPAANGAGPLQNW
Method: (§1) The orexin receptor antagonistic activity of the compounds of formula (I) is determined in accordance with the following experimental method.
(§2) Chinese hamster ovary (CHO) cells expressing the human orexin-1 receptor and the human orexin-2 receptor, respectively, are grown in culture medium (Ham F-12 with L-Glutamine) containing 300 μg/ml G418, 100 U/ml penicillin, 100 μg/ml streptomycin and 10% inactivated fetal calf serum (FCS). The cells are seeded at 80′000 cells/well into 96-well black clear bottom sterile plates (Costar) which have been precoated with 1% gelatine in Hanks' Balanced Salt Solution (HBSS). All reagents are from Gibco BRL. The seeded plates are incubated overnight at 37° C. in 5% CO2.
(§3) Human orexin-A as an agonist is prepared as 1 mM stock solution in methanol:water (1:1), diluted in HBSS containing 0.1% bovine serum albumin (BSA) and 2 mM HEPES for use in the assay at a final concentration of 10 nM.
(§4) Antagonists are prepared as 10 mM stock solution in DMSO, then diluted in 96-well plates, first in DMSO, then in HBSS containing 0.1% bovine serum albumin (BSA) and 2 mM HEPES.
(§5) On the day of the assay, 100 μl of loading medium (HBSS containing 1% FCS, 2 mM HEPES, 5 mM probenecid (Sigma) and 3 μM of the fluorescent calcium indicator fluo-3 AM (1 mM stock solution in DMSO with 10% pluronic acid) (Molecular Probes) is added to each well.
(§6) The 96-well plates are incubated for 60 min at 37° C. in 5% CO2. The loading solution is then aspirated and cells are washed 3 times with 200 μl HBSS containing 2.5 mM probenecid, 0.1% BSA, 2 mM HEPES. 100 μl of that same buffer is left in each well.
(§7) Within the Fluorescent Imaging Plate Reader (FLIPR, Molecular Devices), antagonists are added to the plate in a volume of 50 μl, incubated for 20 min and finally 100 μl of agonist is added. Fluorescence is measured for each well at 1 second intervals, and the height of each fluorescence peak is compared to the height of the fluorescence peak induced by 10 nM orexin-A with buffer in place of antagonist. For each antagonist, IC50 value (the concentration of compound needed to inhibit 50% of the agonistic response) is determined.

human orexin-1 receptor = target: T2, human orexin-1 receptor (Homo sapiens, UniProt O43613); assay: Intracellular calcium measurements (FLIPR), orexin receptor antagonistic activity, OX1; format: cell-based; details: CHO cells expressing the human orexin-1 receptor; 10 nM orexin-A as agonist; fluo-3 calcium signal
T2 construct: expressed in transfected cells; host or cells: CHO cells (G418 selection)
T2 sequence (O43613 1-425): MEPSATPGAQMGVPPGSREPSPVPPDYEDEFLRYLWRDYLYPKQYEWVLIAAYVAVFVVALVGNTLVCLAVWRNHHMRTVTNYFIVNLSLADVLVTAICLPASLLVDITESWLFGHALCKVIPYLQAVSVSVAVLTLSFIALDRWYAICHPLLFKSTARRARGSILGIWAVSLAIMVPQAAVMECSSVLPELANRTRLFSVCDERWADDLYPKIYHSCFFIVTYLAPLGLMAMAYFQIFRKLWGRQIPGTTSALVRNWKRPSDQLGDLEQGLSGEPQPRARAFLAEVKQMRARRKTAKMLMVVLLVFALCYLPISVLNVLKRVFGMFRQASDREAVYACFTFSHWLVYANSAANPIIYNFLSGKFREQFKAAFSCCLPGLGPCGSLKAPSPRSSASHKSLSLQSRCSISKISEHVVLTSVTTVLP
Method: as §1, §2, §3, §4, §5, §6, §7

Row | SMILES | IC50 (human orexin-2 receptor) [nM] | IC50 (human orexin-1 receptor) [nM]
1 | Cc1cccc(-c2sc(C)nc2C(=O)N2CCC[C@@H](NC(=O)c3c(C)nc4sccn34)C2)c1 [Example 7, (R)-6-Methyl-imidazo[2,1-b]thiazole-5-carboxylic acid[1-(2-methyl-5-m-tolyl-thiazole-4-carbonyl)-piperidin-3-yl]-amide] | 50 | 27
2 | O=C(c1ccccc1-c1ccccc1F)N1CCC[C@@H](Nc2ncc(Br)cn2)C1 [Example 3, (R)-[3-(5-Bromo-pyrimidin-2-ylamino)-piperidin-1-yl]-(2′-fluoro-biphenyl-2-yl)-methanone] | 171 | 81
3 | O=C(c1ccccc1-c1ccccc1)N1CCC[C@@H](Nc2ncc(Br)cn2)C1 [Example 1, (R)-Biphenyl-2-yl-[3-(5-bromo-pyrimidin-2-ylamino)-piperidin-1-yl]-methanone] | 392 | 294
4 | Cc1nc(C(=O)N2CCC[C@@H](NC(=O)c3c(C)nc4sccn34)C2)c(-c2ccccc2F)s1 [Example 15, (R)-6-Methyl-imidazo[2,1-b]thiazole-5-carboxylic acid{1-[5-(2-fluoro-phenyl)-2-methyl-thiazole-4-carbonyl]-piperidin-3-yl}-amide] | 97 | 65
5 | Cc1ccc(-c2sc(C)nc2C(=O)N2CCC[C@@H](NC(=O)c3c(C)nc4sccn34)C2)cc1 [Example 9, (R)-6-Methyl-imidazo[2,1-b]thiazole-5-carboxylic acid[1-(2-methyl-5-p-tolyl-thiazole-4-carbonyl)-piperidin-3-yl]-amide] | 165 | 101
